Measurements taken from US20250043349A1, “DEORPHANIZING ODORS USING SINGLE CELL SEQUENCING” (PRESIDENT AND FELLOWS OF HARVARD COLLEGE, priority 2021, published 2025).
Each block holds one molecule with its values, some of them ahead of it.

Tests used:
M72 receptor = details: Arneodo et al. 2018; Zhang et al. 2012; cited from earlier work
M72 (Olfr160) = assay: Act-Seq activation score in OSNs expressing M72; assay type: in vivo, mouse; details: compared with acetophenone
Protocol: Act-Seq (Wu et al., 2017) was performed following odor exposure to quantify odor-evoked responses in each OSN subtype (defined by their expressed OR) across the entire OR repertoire. Mice were habituated to a reversed light cycle for at least for 1 week before odor exposure, transferred to a new disposable cage with regular bedding/food and kept overnight in a satellite animal facility. On the experimental day, each mouse was first transferred to a new empty disposable cage during the dark cycle and habituated for 20 minutes. Empty cages were used to avoid any activation by odorants present within the environments in which the mice were housed. Odors were added to a piece of filter paper (100 μL of odorant) in a 35 mm petri dish and a cotton ball (200 μL of odorant) and placed in each cage. […]
The remaining 169 activation genes that were also considered as HVGs often had weak loadings across multiple GEPs. […] To summarize the effects of odor activation across this set of activation genes, the TPT-expression of these activation genes were z-scored (using means and standard deviations for these genes in the control, acetophenone, and octanal datasets, identified by subsampling equal numbers of cells across all ORs expressed in at least 6 cells across 100 restarts). […] PCA was performed on the differences in z-scored activation gene expression between control and odor conditions. […]

OR10A6 [1] = biological target: T1, OR10A6 (Homo sapiens, UniProt Q8NH74); assay: In vivo human act-seq: nasal swab after 1 hour exposure, IEG expression in OSNs; parameters: endogenous in cells; host or cells: olfactory sensory neurons of a human subject, exposed in vivo and collected by nasal swab; details: human subject
T1 sequence (Q8NH74 1-314): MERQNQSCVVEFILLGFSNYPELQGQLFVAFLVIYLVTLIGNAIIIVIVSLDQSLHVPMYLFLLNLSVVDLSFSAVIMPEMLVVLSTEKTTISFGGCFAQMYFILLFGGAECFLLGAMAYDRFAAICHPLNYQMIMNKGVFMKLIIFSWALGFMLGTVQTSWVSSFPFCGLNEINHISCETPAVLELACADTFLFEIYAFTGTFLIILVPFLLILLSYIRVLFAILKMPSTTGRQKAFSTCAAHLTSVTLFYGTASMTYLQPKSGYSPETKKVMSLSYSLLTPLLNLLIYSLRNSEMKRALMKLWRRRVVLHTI
Protocol: FIG. 16A-16D show in vivo human act-seq data. FIG. 16A depicts a UMAP plot showing olfactory cells obtained from a human subject using a nasal swab after 1 hour exposure to 2-phenylethanol, which smells like rose oil. 1 hour exposure is performed by asking the subject to sniff the odor vial every 2-5 minutes. All major olfactory cell types were identified. OSN: olfactory sensory neuron lineage (progenitors and immature or mature neurons). SUS: sustentacular cells. HBC: horizontal basal cell. MV: microvillar cells. BG: Bowman's gland cells. FIG. 16B examines total count normalized expression of GFY gene (a mature OSN marker) in the UMAP plot. FIG. 16C examines total count normalized expression of immediate early genes (IEG) in OSNs that expressed odorant receptors (OR). […] Horizontal bars indicate mean across cells.

OR10A6 [2] = biological target: T1, OR10A6; details: previous study (doi.org/10.3390/molecules25204743); cited from earlier work
olfactory bulb glomeruli = assay: In vivo olfactory bulb imaging of OSN axons (GCaMP glomerular odor responses); parameters: species or system mouse; details: odor panel, anesthetized mice
Protocol: All surgical procedures were performed in accordance with the guidelines provided by IACUC at Harvard Medical School. Prior to surgery. 4-6 weeks old Omp-IRES-Cre: Ai951) (GCaMP6f) mice, were subcutaneously injected with the analgesic Buprenorphine-SR (1 mg/kg) and anesthetized 1-2 hours later with isoflurane (3% induction. 1-2% maintenance). The skin overlying the left olfactory bulb was retracted and the underlying periosteum was scraped off with a scalpel. The skull was subsequently cleaned with saline and allowed to dry. A 2.5 mm circular craniotomy was made using a biopsy punch (Integra Miltex) taking care not to damage the underlying dura. Gelfoam saturated with cold saline was placed over the craniotomy to reduce swelling and suppress minor bleeds. A custom cranial window was constructed using two circular coverslips (Warner Instruments, 3 mm. #1 thickness). […]
Chronic imaging of the dorsal surface of the olfactory bulb was performed after recovery from the surgery (1-2 weeks) under ketamine (100 mg/kg) and xylazine (10 mg/kg) induced anesthesia, to specifically isolate responses in OSN axons with less modulation from local interneurons and long-range cortical feedback. Depth of anesthesia was assessed every 15 minutes via the toc-pinch reflex and intraperitoneal ketamine was administered at 1/3 concentration of the induction dose for anesthesia maintenance. […]

[3] = test system: OSN subtypes (odorant receptors, ORs); assay: Act-Seq: scSeq of olfactory epithelium after two-hour odor exposure (IEG expression, activated ORs, activation score); assay type: in vivo, mouse
Protocol: Act-Seq (Wu et al., 2017) was performed following odor exposure to quantify odor-evoked responses in each OSN subtype (defined by their expressed OR) across the entire OR repertoire. Mice were habituated to a reversed light cycle for at least for 1 week before odor exposure, transferred to a new disposable cage with regular bedding/food and kept overnight in a satellite animal facility. On the experimental day, each mouse was first transferred to a new empty disposable cage during the dark cycle and habituated for 20 minutes. Empty cages were used to avoid any activation by odorants present within the environments in which the mice were housed. Odors were added to a piece of filter paper (100 μL of odorant) in a 35 mm petri dish and a cotton ball (200 μL of odorant) and placed in each cage. After 2 hours, mice were euthanized, and dissociation was performed as described below. Odors used in this study were as follows. Dipropylene glycol (DPG, control solvent), and 10% of acetophenone, octanal, 2-hydroxy acetophenone, 4-methyl acetophenone, and methyl salicylate. As a control, mice were exposed to DPG alone for 30 min. This control condition was used to account for any drift in transcriptomes during the overnight housing and habituation periods prior to odor exposure and designed to capture the transcriptome in the state it would have been in the odor-exposed animals prior to odor exposure. […] Act-Seq was also performed using lower concentrations of acetophenone (1.0, 0.1, 0.01%) and 2-hydroxy acetophenone (0.1%, 0.01%). All odor dilutions were made with DPG, and all odors and DPG were obtained from Sigma. To assess the persistence of any transcriptional changes observed as a result of odor exposure, a cohort of mice was exposed to acetophenone or DPG for 2 hours, transferred to new clean regular home cages, and subjected to scSeq after an additional 22 hours.
The main olfactory epithelium was dissected in Earle's Balanced Salt Solution (EBSS, pre-treated with carbogen for at least 5 minutes before each use, Worthington), then transferred to a round-bottomed glass dish containing 750 μL of papain solution (one vial of Papain (Worthington) dissolved in 5 mL of EBSS and then equilibrated 10 minutes at 37° C.) and 100 μL of DNase solution (one vial of DNase-I (Worthington) dissolved in 500 μL of EBSS). Bone was removed from the epithelium under a dissecting microscope and the resulting epithelial tissue was placed in a 5 mL tube (Becton Dickinson) with an additional 1.75 mL of Papain solution and 200 μL of DNase-I solution and rocked gently for-60 minutes at 37° C. The tissue was then gently triturated with a 5 mL pipette 10-15 times, passed through a 40 μm cell strainer (Becton Dickinson), and washed with 1 mL of Hibernate-A medium containing 10% Fetal Bovine Serum (FBS. GIBCO). Filtered cells were transferred to a new 5 mL tube and centrifuged 5 minutes at 300×g. The supernatant was decanted, the cells were washed once with 4 mL Hibernate-A containing 10% FBS and resuspended in 1 mL Hibernate-A containing 0.2% FBS. Importantly, each of the solutions above contained transcriptional inhibitors (5 μg/mL of Actinomycin D, 10 μg/mL of Anisomycin and 10 μM of Triptolide, all obtained from Sigma) for all experiments, especially the Act-Seq experiments, except where noted.
OSN subtypes that were responsive to odorants were identified via a two-step process. First, individual OSNs (as defined by the expressed OR) were determined as activated based on their mean z-scored immediate early genes (IEG) expression. A set of 10 IEGs were used (Btg2, Egr1, Fos, Fosb, Gm13889, Junb, Nr4a1, Nr4a2, Pcdh10, and Srxn1). […] The set of 10 IEGs was used since even though all of the IEGs were specific to acute activation by odors, they were still only detected in a minority of cells due to the sparse nature of scSeq. […]

Molecule: 2-hydroxyacetophenone
- binding to the M72 receptor relative to acetophenone (M72 receptor): binds more strongly to the M72 receptor
- activation scores in OSNs expressing M72 (M72 (Olfr160)): higher activation scores than acetophenone

- mean total count normalized expression of 9 IEGs in OSNs expressing OR10A6 vs other ORs (OR10A6 [1]): much higher IEG expression
Molecule: OCCc1ccccc1 [2-phenylethanol]
- activation of OR10A6 in vitro (OR10A6 [2]): activated

Molecule: CCCCC=O [Pentanal]
- breadth of responses across the population of glomeruli (olfactory bulb glomeruli): broadest responses across the population of glomeruli

- z-scored expression of 10 immediate early genes (IEGs) for each OSN subtype, odor vs control ([3]; odor vs control (DPG) conditions): higher in the odor conditions
Molecule: CCCCCCCC=O [octanal]
- overlap between ORs activated by ACE and OCT, odds ratio ([3]; Fisher's exact test, overlap at chance levels): 1.42
